# In article PMC4605517 (PLoS ONE, 2015):
# No end group written: not given here. FLAG = FLAG epitope tag (3XFLAG, N-terminal)
# Tests used:
# hRpn13 at the proteasome = test: anti-hRpt3 immunoprecipitation of proteasome, immunoprobed for hRpn13 (displacement); assay type: cell-based, human; conditions: 293T cells over-expressing peptide; anti-hRpt3 IP, anti-hRpn13 immunoblot; Fig 6A
# Experimental: (§1) The DNA fragment encoding amino acid 916 to 953 of hRpn2 was amplified by PCR and cloned into the bacterial expression vector pRSET and mammalian expression vector p3XFLAG-CMV7.1. Antibodies used in this study include anti-FLAG (Sigma), anti-hRpn2 (cell signaling), anti-hRpt3 (Abcam), and anti-hRpn13 (Abcam).
# (§2) 293T cells (purchased from ATCC) were cultured in DMEM supplemented with 10% fetal bovine serum at 37°C in a humidified atmosphere and 5% CO2. Plasmid DNA was transfected into 293T cells using Lipofectamine2000 (Invitrogen) according to the manufacturer’s instruction. Cells were harvested by gentle centrifugation at 500g for 5 minutes at 4°C after washing with PBS, and cell pellets were resuspended in 1% Triton-TBS buffer (50 mM Tris, pH7.5, 150 mM NaCl, 1 mM EDTA and protease inhibitor cocktail) followed by rocking at 4°C for 30 minutes. The supernatant was collected following centrifugation at 16,000g for 10 minutes and incubated with antibodies at 4°C overnight. Protein G sepharose beads (Sigma) were used to pull down interacting proteins by 3-hour incubation at 4°C. […]
# (§3) We next tested whether over-expression of the hRpn2-derived peptide depletes hRpn13 from the proteasome. For this purpose, we immunoprecipitated proteasome by anti-hRpt3 antibody and detected the presence of hRpn13 by immunoprobing with anti-hRpn13 antibody.
# endogenous hRpn13 = test: anti-FLAG immunoprecipitation, immunoprobed for endogenous hRpn13; assay type: cell-based, human; conditions: 293T cells transfected with p3XFLAG-CMV7.1 plasmid; anti-FLAG IP, anti-Rpn13 immunoblot
# Experimental: (§4) 293T cells (purchased from ATCC) were cultured in DMEM supplemented with 10% fetal bovine serum at 37°C in a humidified atmosphere and 5% CO2. Plasmid DNA was transfected into 293T cells using Lipofectamine2000 (Invitrogen) according to the manufacturer’s instruction. Cells were harvested by gentle centrifugation at 500g for 5 minutes at 4°C after washing with PBS, and cell pellets were resuspended in 1% Triton-TBS buffer (50 mM Tris, pH7.5, 150 mM NaCl, 1 mM EDTA and protease inhibitor cocktail) followed by rocking at 4°C for 30 minutes. The supernatant was collected following centrifugation at 16,000g for 10 minutes and incubated with antibodies at 4°C overnight. Protein G sepharose beads (Sigma) were used to pull down interacting proteins by 3-hour incubation at 4°C. After extensive washing with 1% Triton TBS buffer, SDS-PAGE loading buffer was used to elute proteins from beads for immunoblotting.
# The resulting plasmid was transfected into 293T cells and the cell lysate immunoprecipitated with anti-FLAG antibody.
# [1] = system: ubiquitinated proteins in 293T cells; test: accumulation of ubiquitinated proteins, immunoblot of cell lysates; assay type: cell-based, human; conditions: 293T cells transfected with HA-ubiquitin and peptide plasmid; anti-ubiquitin immunoblot, actin loading control; Fig 6B
# Experimental: as §4
# We next tested whether over-expression of the hRpn2-derived peptide in 293T cells leads to the accumulation of ubiquitinated proteins. Lysates from cells transfected with HA-ubiquitin alone or together with either FLAG-hRpn2 (916–953) WT or F948Stop were subjected to immunoblotting with anti-ubiquitin antibody. Cells expressing F948Stop were used as a negative control, and immunoblotting with anti-actin antibody to confirm equivalent loading.
# proteasome subunit hRpn2 = test: anti-FLAG immunoprecipitation, immunoprobed for endogenous hRpn2; assay type: cell-based, human; conditions: 293T cells; anti-FLAG IP; Fig 5A
# Experimental: as §1
# as §4, with “immunoblotting. […]” for “immunoblotting.”
# hRpn2 in the proteasome = test: anti-hRpt3 immunoprecipitation of proteasome, immunoprobed for hRpn2; assay type: cell-based, human; conditions: 293T cells over-expressing peptide; anti-hRpt3 IP; Fig 6A
# Experimental: as §1, §2, §3
# proteasome subunit hRpt3 = test: anti-FLAG immunoprecipitation, immunoprobed for endogenous hRpt3; assay type: cell-based, human; conditions: 293T cells; anti-FLAG IP; Fig 5A
# Experimental: as §1
# as §4, with “immunoblotting. […]” for “immunoblotting.”
# [2] = system: multiple myeloma and ovarian cancer xenografts; conditions: ref [22]; cited from earlier work
# Text: (§5) hRpn13 functions in ovarian and colorectal cancer proliferation, and its knockdown triggers apoptosis in these and other cancer cell lines.
# Rpn13 Cys88 = conditions: ref [22]; cited from earlier work
# Text: as §5
# [3] = system: ubiquitin-mediated protein degradation; conditions: ref [22]; cited from earlier work
# Text: as §5
# [4] = system: Rpn13 interdomain interactions; conditions: ref [22]; cited from earlier work
# Text: as §5
# hRpn13 (1–150) [5] = molecular target: T1, hRpn13 (1–150) (human, UniProt Q16186 1-150); test: SEC + other: LC-MS; hRpn2 (916-953):hRpn13 Pru complex passed over a size exclusion column after mixing to remove excess component; molar ratio evaluated by LC-MS; conditions: both partners purified
# T1 construct: human Rpn13/Adrm1, Pru (pleckstrin-like receptor for ubiquitin) domain, residues 1-150; also called hRpn13 Pru domain; hRpn13 Pru
# T1 sequence (Q16186 1-150): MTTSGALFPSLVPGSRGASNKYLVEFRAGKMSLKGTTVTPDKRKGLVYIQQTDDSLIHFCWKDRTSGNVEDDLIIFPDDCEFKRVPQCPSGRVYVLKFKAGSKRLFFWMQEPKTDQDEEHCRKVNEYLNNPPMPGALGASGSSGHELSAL
# hRpn13 (1–150) [6] = molecular target: T1, hRpn13 (1–150); test: ITC; 200 μM hRpn2 (916-953) injected into 20 μM hRpn13 (1-150) in the cell; 25°C; 20 mM sodium phosphate, 50 mM NaCl, 10 mM βME, pH 6.5; one-site fit; conditions: both partners purified
molecule,measurement,setting,value
F948Stop: FLAG-hRpn2 (916–953) variant with F948 replaced with a stop codon; negative control (DTSEDIEELVEPVAAHGPKIEEEEQEPEPPEP; not fully specified (N-terminus)),amount of hRpn13 at the proteasome,hRpn13 at the proteasome,does not deplete hRpn13 from proteasome
same,immunoprecipitation of / interaction with endogenous hRpn13,endogenous hRpn13,does not bind hRpn13
same,presence of ubiquitinated proteins in cell lysate,[1],increase was not observed
"FLAG-hRpn2 (916–953) WT: hRpn2 (916–953) fragment in frame with an N-terminal FLAG tag, expressed from p3XFLAG-CMV7.1 in 293T cells ({FLAG}-DTSEDIEELVEPVAAHGPKIEEEEQEPEPPEPFEYIDD; UniProt Q99460 916-953, looked up, fragment)",amount of hRpn13 at the proteasome,hRpn13 at the proteasome,significantly reduced the amount of hRpn13 at the proteasome
same,immunoprecipitation of / interaction with endogenous hRpn13,endogenous hRpn13,confirmed the interaction of the hRpn2-derived peptide with endogenous hRpn13 in 293T cells
same,immunoprecipitation of endogenous hRpn2,proteasome subunit hRpn2,neither of these RP components was immunoprecipitated by the peptide
same,assembly of hRpn2 into the proteasome,hRpn2 in the proteasome,not affected by expression of the hRpn2-derived peptide
same,presence of ubiquitinated proteins in cell lysate,[1],increase in the presence of ubiquitinated proteins
same,immunoprecipitation of endogenous hRpt3,proteasome subunit hRpt3,neither of these RP components was immunoprecipitated by the peptide
Cl.N[C@@H](Cc1ccccc1)C(=O)N1C/C(=C/c2ccc(Cl)c(Cl)c2)C(=O)/C(=C\c2ccc(Cl)c(Cl)c2)C1 [RA190],growth of multiple myeloma and ovarian cancer xenografts,[2],restricts growth of multiple myeloma and ovarian cancer xenografts
same,covalent attachment to Rpn13,Rpn13 Cys88,covalently attaches to Rpn13 Cys88
same,effect on ubiquitin-mediated protein degradation,[3],inhibits ubiquitin-mediated protein degradation
same,effect on Rpn13 interdomain interactions,[4],abrogates Rpn13 interdomain interactions
"F948 with arginine: FLAG-hRpn2 (916–953) variant with F948 replaced with arginine ({FLAG}-DTSEDIEELVEPVAAHGPKIEEEEQEPEPPEPREYIDD; UniProt Q99460 916-953, looked up, variant F948R)",immunoprecipitation of / interaction with endogenous hRpn13,endogenous hRpn13,unable to immunoprecipitate endogenous hRpn13 from 293T cells
"GPGSDTSEDIEELVEPVAAHGPKIEEEEQEPEPPEPFEYIDD (amino acids that remained at the N-terminal end from the PreScission protease tag after cleavage; human Rpn2/PSMD1, proteasome PC repeat protein, residues 916-953 (the C-terminal 38 amino acids); also called hRpn2-derived peptide; 38-amino acid peptide derived from the C-terminus of hRpn2/PSMD1; source: E. coli, purified (glutathione S-sepharose, PreScission cleavage, Superdex 75); not shown: …) [hRpn2 (916–953)]",stoichiometry N,hRpn13 (1–150) [5],1
same,Kd,hRpn13 (1–150) [6],12 nM
